Test results reported in the NIST ThermoML archive (doi:10.1021/je4004417).
Several values for one entry are separate records, joined by “and”; a condition that tells them apart may be missing. Equal entries are not always repeated. Numbers after ± are expanded uncertainties.

Legend:
[1] = refractive index (Na D-line) (dimensionless); conditions: 293.15 K; 101.33 kPa; Liquid; Standard Abbe refractometry
[2] = Liquid, Closed cell (Static) method

| SMILES | refractive index [1] | vapor or sublimation pressure ([2]; 343.15 K) | vapor or sublimation pressure ([2]; 363.15 K) | vapor or sublimation pressure ([2]; 393.15 K) |
| --- | --- | --- | --- | --- |
| O=CN1CCOCC1 [N-formylmorpholine] | 1.4844 ± 0.0007 | 0.16 ± 0.21 kPa and 0.15 ± 0.21 kPa | 0.49 ± 0.21 kPa | 2.18 ± 0.21 kPa |
| CCCCCCC [heptane] | 1.3877 ± 0.0007 | 40.4 ± 0.31 kPa | 78.59 ± 0.43 kPa | 183.7 ± 2.2 kPa |
| CCCCCC [hexane] | 1.3748 ± 0.0007 | 105.47 ± 2.2 kPa | 190.95 ± 2.3 kPa | 400.27 ± 2.5 kPa |
